Results taken from patent US8063044B2, “Pyrazole derivatives” (Pfizer Inc., priority 2001, dated 2011).

Tests used:
[1] = biological target: T1, purified recombinant HIV-1 reverse transcriptase (Human immunodeficiency virus type 1 group M subtype B, UniProt P04585); assay: Inhibition of HIV-1 reverse transcriptase enzyme ([3H]-SPA or flashplate assay); format: biochemical; conditions: recombinant RT expressed in Escherichia Coli; Poly(rA)-oligo(dT) [3H]-SPA or [3H]-flashplate assay; 5% final DMSO; read-out: IC50 (concentration at which the compound inhibited the reverse transcriptase by 50%)
T1 construct: purified recombinant HIV-1 reverse transcriptase (RT, EC, 2.7.7.49); made in house; host or cells: Escherichia coli
Description: A. Inhibition of HIV-1 Reverse Transcriptase Enzyme
The reverse transcriptase activity of the compounds of the invention may be assayed as following. Using the purified recombinant HIV-1 reverse transcriptase (RT, EC, 2.7.7.49) obtained by expression in Escherichia Coli, a 96-well plate assay system was established for assaying a large number of samples using either the Poly(rA)-oligo(dT) Reverse Transcriptase [3H]-SPA enzyme assay system (Amersham NK9020) or the [3H]-flashplate enzyme assay system (NEN-SMP 103) and following the manufacturer's recommendations. The compounds were dissolved in 100% DMSO and diluted with the appropriate buffer to a 5% final DMSO concentration. The inhibitory activity was expressed in percent inhibition relative to the DMSO control.

Row | melting point [°C] | Structure (SMILES) | IC50 [1] [µM]
1 | – | CCc1nn(C2CNC2)c(CC)c1Oc1cc(Cl)cc(Cl)c1 [Example 51, 1-(3-Azetidinyl)-4-(3,5-dichlorophenoxy)-3,5-diethyl-1H-pyrazole] | 0.248
2 | 70 to 72 | CCc1nn(CC#N)c(CC)c1Oc1cc(Cl)cc(Cl)c1 | –
3 | – | CCc1nn(CCO)c(CC)c1Oc1c(C)cc(C#N)cc1C [Example 20] | 3.2
4 | – | CCc1nn(Cc2cc(=O)[nH]c(N)n2)c(CC)c1Oc1cc(Cl)cc(Cl)c1 [Example 7, 2-Amino-6-{[4-(3,5-dichlorophenoxy)-3,5-diethyl-1H-pyrazol-1-yl]methyl}-4(3H)-pyrimidinone] | 39
